Experimental data: patent publication US20090124644A1, “HIV INHIBITING 2-(4-CYANOPHENYLAMINO) PYRIMIDINE DERIVATIVES” (priority 2005, published 2009)

Legend:
Format in all cases: cell-based
[1] = system: Strain IIIB, wild type HIV-LAI strain; test: Antiviral spectrum, cellular assay, strain IIIB; settings: Human immunodeficiency virus 1
Experimental: (§1) Because of the increasing emergence of drug resistant HIV strains, the present compounds were tested for their potency against clinically isolated HIV strains harboring several mutations. These mutations are associated with resistance to reverse transcriptase inhibitors and result in viruses that show various degrees of phenotypic cross-resistance to the currently commercially available drugs such as for instance AZT and delavirdine.
(§2) The antiviral activity of the compound of the present invention has been evaluated in the presence of wild type HIV and HIV mutants bearing mutations at the reverse transcriptase gene. The activity of the compounds is evaluated using a cellular assay and the residual activity is expressed in pEC50 values. The columns IIIB and A-G in the table list the pEC50 values against various strains IIIB, A-G.
(§3) Strain IIIB is wild type HIV-LAI strain Strain A contains mutation Y181C in HIV reverse transcriptase, Strain B contains mutation V106A in HIV reverse transcriptase, Strain C contains mutation L100I in HIV reverse transcriptase, Strain D contains mutation Y188L in HIV reverse transcriptase, Strain E contains mutations L100I and K103N in HIV reverse transcriptase, Strain F contains mutations K103N and Y181C in HIV reverse transcriptase.

[2] = system: Strain A, mutation Y181C in HIV reverse transcriptase; test: Antiviral spectrum, cellular assay, strain A; settings: Human immunodeficiency virus 1, read-out: pEC50 A (converted)
Experimental: as §1, §2, §3

[3] = system: Strain B, mutation V106A in HIV reverse transcriptase; test: Antiviral spectrum, cellular assay, strain B; settings: Human immunodeficiency virus 1, read-out: pEC50 B (converted)
Experimental: as §1, §2, §3

[4] = system: Strain C, mutation L100I in HIV reverse transcriptase; test: Antiviral spectrum, cellular assay, strain C; settings: Human immunodeficiency virus 1, read-out: pEC50 C (converted)
Experimental: as §1, §2, §3

[5] = system: Strain D, mutation Y188L in HIV reverse transcriptase; test: Antiviral spectrum, cellular assay, strain D; settings: Human immunodeficiency virus 1, read-out: pEC50 D (converted)
Experimental: as §1, §2, §3

[6] = system: Strain E, mutations L100I and K103N in HIV reverse transcriptase; test: Antiviral spectrum, cellular assay, strain E; settings: Human immunodeficiency virus 1, read-out: pEC50 E (converted)
Experimental: as §1, §2, §3

[7] = system: Strain F, mutations K103N and Y181C in HIV reverse transcriptase; test: Antiviral spectrum, cellular assay, strain F; settings: Human immunodeficiency virus 1, read-out: pEC50 F (converted)
Experimental: as §1, §2, §3

Compound | EC50 [1] [nM] | EC50 [2] [nM] | EC50 [3] [nM] | EC50 [4] [nM] | EC50 [5] [nM] | EC50 [6] [nM] | EC50 [7] [nM]
N#Cc1ccc(Nc2nc(N)c(Br)c(Sc3c(C#N)cc(C#N)cc3C#N)n2)cc1 [Compound 2] | 3.16 | 15.8 | 3.16 | 20 | 3.98 | 7.94 | 20
Cc1cc(C#N)cc(C)c1[S+]([O-])c1nc(Nc2ccc(C#N)cc2)nc(N)c1Br (stereo not drawn) [Compound 3] | 5.01 | 79.4 | 7.94 | 1580 | 39.8 | 6310 | 251
Cc1cc(C#N)cc(C)c1Nc1nc(Nc2ccc(C#N)cc2)nc(N)c1Br [Compound 1] | 0.631 | 3.98 | 0.398 | 0.794 | 0.794 | 3.98 | 3.98
